These results are taken from ChEMBL document CHEMBL4190267, “Discovery of potent molecular chimera (CM358) to treat human metastatic melanoma” (Eur J Med Chem, 2017).

SMILES strings stand for the structures. Activity calls are given as the source filed them. No cut-off for these calls is given here.

The test system of assay [1] is PC-3. The experiment in a line: Growth inhibition of human PC3 cells preincubated for 6 hrs followed compound washout measured after 24 hrs by XTT assay. It counts as functional. On the technique in general: Tetrazolium assays rely on reduction of a dye to a coloured formazan, in cell work by metabolically active cells.
Assay [2] relates to MDA-MB-231. The experiment in a line: Growth inhibition of human MDA-MB-231 cells preincubated for 6 hrs followed compound washout measured after 24 hrs by XTT assay. It counts as functional.
In assay [3] the test system is WM 266-4. The experiment in a line: Growth inhibition of human WM266.4 cells preincubated for 6 hrs followed compound washout measured after 24 hrs by XTT assay. The format is functional.
The subject of assay [4] is A 172. Description: Growth inhibition of human A172 cells preincubated for 6 hrs followed compound washout measured after 24 hrs by XTT assay. It counts as functional.
The test system of assay [5] is NCI-H1299. The experiment in a line: Growth inhibition of human NCI-H1299 cells preincubated for 6 hrs followed compound washout measured after 24 hrs by XTT assay. The format is functional.
The test system of assay [6] is PC-3. The experiment in a line: Growth inhibition of human PC3 cells up to 25 uM cotreated with camptothecin measured after 24 hrs by XTT assay. The format is functional, cell-based.
Assay [7] deals with MDA-MB-231. The experiment in a line: Growth inhibition of human MDA-MB-231 cells up to 25 uM cotreated with camptothecin measured after 24 hrs by XTT assay. The format is functional, cell-based.
Assay [8] has as its system WM 266-4. Description: Growth inhibition of human WM266.4 cells up to 25 uM cotreated with camptothecin measured after 24 hrs by XTT assay. It counts as functional, cell-based.
In assay [9] the test system is A 172. Description: Growth inhibition of human A172 cells up to 25 uM cotreated with camptothecin measured after 24 hrs by XTT assay. The format is functional, cell-based.
Assay [10] concerns NCI-H1299. Description: Growth inhibition of human NCI-H1299 cells up to 25 uM cotreated with camptothecin measured after 24 hrs by XTT assay. It counts as functional, cell-based.
The subject of assay [11] is PC-3. The experiment in a line: Growth inhibition of human PC3 cells up to 25 uM measured after 24 hrs by XTT assay. It counts as functional, cell-based.
In assay [12] the test system is MDA-MB-231. The experiment in a line: Growth inhibition of human MDA-MB-231 cells up to 25 uM measured after 24 hrs by XTT assay. It counts as functional, cell-based.
Assay [13] relates to WM 266-4. Description: Growth inhibition of human WM266.4 cells up to 25 uM measured after 24 hrs by XTT assay. The format is functional, cell-based.
In assay [14] the test system is A 172. Description: Growth inhibition of human A172 cells up to 25 uM measured after 24 hrs by XTT assay. It counts as functional, cell-based.
For assay [15], the system named is NCI-H1299. The experiment in a line: Growth inhibition of human NCI-H1299 cells up to 25 uM measured after 24 hrs by XTT assay. It counts as functional, cell-based.
The test system of assay [16] is WM 266-4. Description: Growth inhibition of human WM266.4 cells up to 25 uM measured up to 96 hrs by XTT assay. It counts as functional, cell-based.

Turning to `O=C(CCCc1ccc(N(CCCl)CCCl)cc1)Nc1ccn([C@@H]2O[C@H](CO)[C@@H](O)[C@@H]2O)c(=O)n1`, the “growth inhibition (GI)” value with PC-3 [1], in the assay on MDA-MB-231 [2], in the assay on WM 266-4 [3], in the assay on A 172 [4] and in the assay on NCI-H1299 [5] was “inactive” in each case.
Turning to `COc1cc2c(c(OC)c1OC)-c1ccc(OC)c(=O)cc1[C@@H](NC(C)=O)CC2`, the “growth inhibition (GI)” value with PC-3 [6], in the assay on MDA-MB-231 [7], in the assay with WM 266-4 [8], with A 172 [9] and in the assay on NCI-H1299 [10] was “Active” throughout.
As to `CC[C@@]1(OC(=O)N[C@H]2CCc3cc(OC)c(OC)c(OC)c3-c3ccc(OC)c(=O)cc32)C(=O)OCc2c1cc1n(c2=O)Cc2cc3ccccc3nc2-1`, the “growth inhibition (GI)” value with PC-3 [11], in the assay on MDA-MB-231 [12], in the assay with WM 266-4 [13], in the assay with A 172 [14], in the assay with NCI-H1299 [15] and with WM 266-4 [16] was “inactive” each time.
As to `Nc1ccn([C@@H]2O[C@H](COC(=O)CCCc3ccc(N(CCCl)CCCl)cc3)[C@@H](O)[C@@H]2O)c(=O)n1`, the “growth inhibition (GI)” value in the assay on PC-3 [1], with MDA-MB-231 [2], in the assay on WM 266-4 [3], in the assay with A 172 [4] and in the assay on NCI-H1299 [5] was “inactive” throughout.
